Target: T1, Alkanal monooxygenase alpha chain (Vibrio harveyi, UniProt P07740)
T1 sequence (P07740 whole entry): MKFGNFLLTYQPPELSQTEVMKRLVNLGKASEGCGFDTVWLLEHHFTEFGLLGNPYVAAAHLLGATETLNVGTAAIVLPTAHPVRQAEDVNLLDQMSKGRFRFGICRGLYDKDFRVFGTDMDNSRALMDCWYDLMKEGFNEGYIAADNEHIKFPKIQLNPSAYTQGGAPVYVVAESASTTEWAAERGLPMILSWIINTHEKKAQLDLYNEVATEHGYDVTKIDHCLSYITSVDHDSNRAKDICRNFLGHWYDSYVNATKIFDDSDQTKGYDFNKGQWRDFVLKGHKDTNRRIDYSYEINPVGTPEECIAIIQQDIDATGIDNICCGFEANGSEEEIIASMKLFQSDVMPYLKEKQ
Assay: Vibrio harveyi growth inhibition, confirmation, absorbance, dose retest (AID 2723)

Structure (SMILES) | EC50 [µM]
Cn1cnc(S(=O)(=O)Nc2ccc(OC(F)(F)F)cc2)c1 [SMR000314513] | > 160
C=Cn1c(C(=O)O)ccc1-c1ccc(CC)cc1 | > 160
Cc1cccc(NS(=O)(=O)c2ccc(Oc3ccccc3)cc2)n1 [SMR000071466] | > 160
CN(C)S(=O)(=O)c1ccc(NC(=S)NC(=O)Cc2ccccc2)cc1 [N-[[4-(dimethylsulfamoyl)phenyl]carbamothioyl]-2-phenyl-ethanamide] | > 160
COc1cc(NC(=O)CN2C(=O)NC(c3ccccc3)(c3ccccc3)C2=O)cc(OC)c1 [MLS001176525] | > 160
CCCc1ccc(S(=O)(=O)N(C)S(=O)(=O)c2ccc(F)cc2)cc1 [N-(4-fluorophenyl)sulfonyl-N-methyl-4-propylbenzenesulfonamide] | 7.78
CCc1ccc(S(=O)(=O)Nc2ccc(Br)cn2)cc1 [MLS001211346] | > 160

— BindingDB's records for doi:10.7270/Q22R3Q4F (Broad Institute, 2010)
